{
  "source": "patent US8394395B2",
  "about": "“Use of a cosmetic composition for the care of fatty skin” (Laboratories Clarins, priority 2006, dated 2013)",
  "key": {"[1]": {"tested_on": "human sebocytes (Hs 917.T, ATCC line No. CRL-7669)", "experiment": "Sebocyte proliferation, M.T.T. colorimetric test", "format": "cell-based", "settings": "72 hours of culture, versus reference medium", "method": "(§1) A line of human sebocytes (Hs 917.T, ATCC line No. CRL-7669) was cultured in Dulbecco's modified Eagle's medium with 4.5 g/l of D-glucose and 10% of fetal calf serum. These adherent cells have a polygonal morphology and large nuclei.\nProliferation was evaluated by means of a validated colorimetric test, the M.T.T. test (dimethyl thiazolyl diphenyl tetrazolium) (according to Mosmann, J. Immunol. Meth. 1983 65: 55-63). This compound is metabolized by the mitochondria, to give blue formazan crystals, the amount of which depends directly on the activity of the mitochondrial succinate dehydrogenase enzyme and on the number of living cells.\nAs a result of this, the proliferation is measured by colorimetery (570 nm).\nThe proliferation was therefore evaluated according to the following conditions: • sebocytes in reference medium; • sebocytes cultured in the presence of the reference medium supplemented with chrysin at the 2 concentrations of 10^−3% and 5×10^−3%.\nFor each condition performed in sextuplet, the proliferation was analyzed after 72 hours of culture."}, "[2]": {"tested_on": "human sebocytes (Hs 917.T, ATCC line No. CRL-7669)", "experiment": "Sebocyte viability (MTT exclusion test)", "format": "cell-based", "settings": "chrysin concentrations of 10^−3% and 5×10^−3%; compared with conventional culture medium", "method": "as §1, with “nuclei. Firstly, we verified the viability (MTT exclusion test) of the sebocytes in the presence of chrysin at various concentrations, in comparison with their conventional culture medium.” for “nuclei.”"}},
  "data": [
    {"smiles": "O=c1cc(-c2ccccc2)oc2cc(O)cc(O)c12", "note": "[chrysin, 5,7-dihydroxyflavone]", "values": [
      {"measurement": "difference in proliferation of human sebocytes in culture", "setting": "[1]; chrysin concentration 5×10^−3%", "value": "−18.4", "unit": "%"},
      {"measurement": "difference in proliferation of human sebocytes in culture", "setting": "[1]; chrysin concentration 10^−3%", "value": "−10.5", "unit": "%"},
      {"measurement": "cytotoxicity on sebocytes (viability)", "setting": "[2]", "value": "did not induce any cytotoxicity"}
    ]}
  ]
}
